Measured values: patent US20070104644A1, “Inhibitor imaging agents” (priority 2003, published 2007)

Experiments:
MMP-2 = molecular target: T1, MMP-2 (Homo sapiens, UniProt P08253); assay: MMP-2 colorimetric assay kit (Biomol AK-408); assay type: biochemical
T1 sequence (P08253 110-660): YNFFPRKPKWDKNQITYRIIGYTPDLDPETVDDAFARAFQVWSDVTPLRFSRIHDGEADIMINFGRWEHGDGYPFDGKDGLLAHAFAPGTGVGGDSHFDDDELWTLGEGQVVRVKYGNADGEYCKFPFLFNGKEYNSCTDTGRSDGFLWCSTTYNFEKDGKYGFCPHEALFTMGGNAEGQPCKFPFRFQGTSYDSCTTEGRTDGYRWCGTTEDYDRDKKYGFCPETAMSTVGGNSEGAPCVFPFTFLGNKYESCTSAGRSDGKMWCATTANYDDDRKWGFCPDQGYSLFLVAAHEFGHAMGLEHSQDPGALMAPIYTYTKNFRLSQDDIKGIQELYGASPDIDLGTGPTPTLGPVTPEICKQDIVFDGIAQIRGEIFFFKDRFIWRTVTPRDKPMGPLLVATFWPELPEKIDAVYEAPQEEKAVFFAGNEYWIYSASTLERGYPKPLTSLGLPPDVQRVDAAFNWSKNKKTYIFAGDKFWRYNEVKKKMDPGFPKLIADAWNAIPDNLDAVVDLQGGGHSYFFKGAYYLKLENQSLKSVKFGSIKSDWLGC
Experimental: (§1) Compounds were screened using the following commercially available Biomol assay kits: • MMP-1 colorimetric assay kit—Catalogue number AK-404, • MMP-2 colorimetric assay kit—Catalogue number AK-408, • MMP-8 calorimetric assay kit—Catalogue number AK-414, • MMP-9 calorimetric assay kit—Catalogue number AK-410, • MMP-12 colorimetric assay kit—Catalogue number AK-402, Which are available from Affiniti Research Products Ltd. (Palatine House, Matford Court, Exeter, EX2 8NL, UK).
(§2) Inhibitors were provided in powdered form, and stored at 4° C. For each inhibitor a 1 mM stock solution in DMSO was prepared, dispensed into 20 μl aliquots and these aliquots stored at −20° C. The stock solution was diluted to give 8 inhibitor concentrations (recommended: 50 μM, 5 μM, 500 nM, 50 nM, 5 nM, 500 pM, 50 pM and 5 pM). Dilutions were made in the kit assay buffer. A five-fold dilution of the inhibitor stocks is made on addition to the assay wells, therefore final concentration range was from 10 μM to 1 pM.
(§3) Details are provided with the commercial kit, but can be summarised as follows: • Prepare test compound dilutions as above, • Add assay buffer to plate, • Add test compounds to plate • Prepare standard kit inhibitor NNGH (see kit for dilution factor) • Add NNGH to control inhibitor wells • Prepare MMP enzyme (see kit for dilution factor) • Add MMP to plate • Incubate plate at 37° C. for ˜15 min • Prepare thiopeptolide substrate (see kit for dilution factor) • Add substrate to plate • Count every 2 min for 1 hr, 37° C., 414 nm on a Labsystems iEMS plate reader (for MMP-1 count every 30 seconds for 20 minutes).

MMP-9 = MMP-9 (Homo sapiens, UniProt P14780); assay: MMP-9 colorimetric assay kit (Biomol AK-410); assay type: biochemical
Chain of MMP-9 (P14780 94-707): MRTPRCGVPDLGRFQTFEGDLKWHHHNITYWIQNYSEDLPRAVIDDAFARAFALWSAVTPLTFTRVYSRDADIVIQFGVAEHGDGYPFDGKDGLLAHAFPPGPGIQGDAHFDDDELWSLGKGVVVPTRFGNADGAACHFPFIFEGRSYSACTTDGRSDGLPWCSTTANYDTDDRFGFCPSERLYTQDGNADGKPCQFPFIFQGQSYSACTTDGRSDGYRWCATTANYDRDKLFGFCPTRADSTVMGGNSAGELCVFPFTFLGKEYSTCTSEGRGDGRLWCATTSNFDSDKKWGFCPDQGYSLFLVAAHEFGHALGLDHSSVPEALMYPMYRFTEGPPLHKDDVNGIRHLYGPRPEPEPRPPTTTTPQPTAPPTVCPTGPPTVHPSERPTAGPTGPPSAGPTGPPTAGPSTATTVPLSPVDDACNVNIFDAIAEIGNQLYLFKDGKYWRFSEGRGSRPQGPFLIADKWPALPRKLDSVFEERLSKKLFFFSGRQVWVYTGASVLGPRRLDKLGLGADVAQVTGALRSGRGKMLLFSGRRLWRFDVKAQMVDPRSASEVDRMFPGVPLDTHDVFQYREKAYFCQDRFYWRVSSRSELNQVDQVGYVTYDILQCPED
Experimental: as §1, §2, §3

[1] = test system: Lewis lung carcinoma (LLC) tumour; assay: Biodistribution in LLC tumour model in vivo; set-up: species or system C57BL/6 mice
Experimental: 1×10^6 Lewis lung carcinoma (LLC) cells are injected subcutaneously into right inner thigh of C57BL/6 mice. Tumours were allowed to grow for 15 days prior to biodistribution being carried out.
Biodistribution studies were performed in the LLC tumour model.
Biodistribution was performed in the LLC tumour model of Example 23 with Compounds 46B and 48B.

[2] = test system: ApoE −/− mice, carotid artery; assay: Biodistribution in ApoE ligation model of atherosclerosis (ligated and sham); assay type: in vivo
Description: ApoE −/− mice are transgenic knock-out mice, which lack the ApoE gene, and are therefore unable to regulate their plasma cholesterol levels. As a consequence ApoE mice develop atherosclerotic lesions, a process which is accelerated with feeding of high fat diet. Further acceleration of lesion development can be achieved by ligating the carotid artery, resulting in advanced lesion formation within 4 weeks of surgery and high fat diet feeding.
Two controls have been used for these experiments: (1) ApoE sham animals in which the mice undergo the same surgical intervention but the sture is only passed beneath the carotid and then removed and, (2) C57BL/6 ligtaed animals which undergo the same surgical ligation and high fat feeding as the ApoE ligated mice. Literature reports have stated that these animals do have some level of tissue remodelling, but with lower active MMP levels [Ivan et al, Circulation, 105, 2686-2691 (2002)].

MMP-8 = MMP-8 (Homo sapiens, UniProt P22894); assay: MMP-8 colorimetric assay kit (Biomol AK-414); assay type: biochemical
Chain of MMP-8 (P22894 101-467): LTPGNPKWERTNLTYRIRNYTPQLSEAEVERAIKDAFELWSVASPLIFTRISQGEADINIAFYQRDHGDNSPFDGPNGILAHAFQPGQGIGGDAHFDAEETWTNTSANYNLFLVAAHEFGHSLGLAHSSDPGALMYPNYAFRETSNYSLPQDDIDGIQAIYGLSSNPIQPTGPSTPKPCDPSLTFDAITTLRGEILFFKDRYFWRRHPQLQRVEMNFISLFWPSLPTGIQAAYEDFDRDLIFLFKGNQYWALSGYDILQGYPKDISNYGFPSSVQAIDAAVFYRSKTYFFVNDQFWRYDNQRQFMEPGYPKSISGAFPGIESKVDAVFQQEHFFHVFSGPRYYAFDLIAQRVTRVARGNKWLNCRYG
Experimental: as §1, §2, §3

MMP-1 = molecular target: T2, MMP-1 (Homo sapiens, UniProt P03956); assay: MMP-1 colorimetric assay kit (Biomol AK-404); assay type: biochemical
T2 sequence (P03956 100-469): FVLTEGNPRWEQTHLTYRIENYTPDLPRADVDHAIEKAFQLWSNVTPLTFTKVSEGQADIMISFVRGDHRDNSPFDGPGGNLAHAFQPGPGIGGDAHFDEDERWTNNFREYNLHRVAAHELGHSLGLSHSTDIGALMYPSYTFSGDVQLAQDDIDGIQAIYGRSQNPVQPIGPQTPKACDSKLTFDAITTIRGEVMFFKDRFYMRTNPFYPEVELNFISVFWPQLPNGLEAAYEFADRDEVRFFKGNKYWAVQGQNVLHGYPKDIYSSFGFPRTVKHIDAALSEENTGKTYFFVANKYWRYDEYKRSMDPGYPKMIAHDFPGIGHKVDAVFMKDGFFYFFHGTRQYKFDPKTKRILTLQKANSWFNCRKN
Experimental: as §1, §2, §3

[3] = ApoE Ligated, 5 min post injection
[4] = ApoE Ligated, 60 min post injection
[5] = ApoE Sham, 60 min post injection

Question: For `NC(=O)[C@H](Cc1ccc(O)c(I)c1)NC(=O)CCOCCOCCOCCOCCOCCOCCOCCOCCOCCOCCOCCNC(=O)CCN(C1(C(=O)NO)CCCC1)S(=O)(=O)c1ccc(Oc2ccc(F)cc2)cc1` [Compound 44], which Ki (MMP-2) is on record?
Answer: 0.25 nM

Question: What about the Ki (MMP-9) of the same compound?
Answer: 0.076 nM

Question: `NC(=O)[C@H](CCCCNC(=O)CON=Cc1ccc([18F])cc1)NC(=O)CCN(C1(C(=O)NO)CCCC1)S(=O)(=O)c1ccc(Oc2ccc(F)cc2)cc1` [Compound 46B] was tested. Which “% ID Urinary (urinary excretion), mean” value ([1]; 5 min post injection) did it give?
Answer: 6.60 % ID

Question: And the “% ID/g Tumour, mean” value ([1]; 5 min post injection)?
Answer: 0.42 % ID/g

Question: And the “Tumour/Blood, mean” value ([1]; 5 min post injection)?
Answer: 0.18

Question: What about the “Tumour/Heart, mean” value ([1]; 5 min post injection) of the same compound?
Answer: 0.37

Question: What about the “Tumour/Lung, mean” value ([1]; 5 min post injection) of the same compound?
Answer: 0.21

Question: And the “Tumour/Muscle, mean” value ([1]; 5 min post injection)?
Answer: 1.16

Question: And the “% ID Urinary (urinary excretion), mean” value ([1]; 30 min post injection)?
Answer: 12.00 % ID

Question: What about the “% ID/g Tumour, mean” value ([1]; 30 min post injection) of the same compound?
Answer: 0.53 % ID/g

Question: What about the “Tumour/Blood, mean” value ([1]; 30 min post injection) of the same compound?
Answer: 0.47

Question: What about the “Tumour/Heart, mean” value ([1]; 30 min post injection) of the same compound?
Answer: 1.15

Question: And the “Tumour/Lung, mean” value ([1]; 30 min post injection)?
Answer: 0.55

Question: And the “Tumour/Muscle, mean” value ([1]; 30 min post injection)?
Answer: 2.06

Question: What about the “% ID Urinary (urinary excretion), mean” value ([1]; 60 min post injection) of the same compound?
Answer: 15.02 % ID

Question: What about the “% ID/g Tumour, mean” value ([1]; 60 min post injection) of the same compound?
Answer: 0.32 % ID/g

Question: What about the “Tumour/Blood, mean” value ([1]; 60 min post injection) of the same compound?
Answer: 0.73

Question: What about the “Tumour/Heart, mean” value ([1]; 60 min post injection) of the same compound?
Answer: 1.54

Question: And the “Tumour/Lung, mean” value ([1]; 60 min post injection)?
Answer: 0.60

Question: What about the “Tumour/Muscle, mean” value ([1]; 60 min post injection) of the same compound?
Answer: 2.02

Question: And the “% ID Urinary (urinary excretion), mean” value ([1]; 120 min post injection)?
Answer: 19.68 % ID

Question: And the “% ID/g Tumour, mean” value ([1]; 120 min post injection)?
Answer: 0.31 % ID/g

Question: What about the “Tumour/Blood, mean” value ([1]; 120 min post injection) of the same compound?
Answer: 0.73

Question: What about the “Tumour/Heart, mean” value ([1]; 120 min post injection) of the same compound?
Answer: 1.33

Question: What about the “Tumour/Lung, mean” value ([1]; 120 min post injection) of the same compound?
Answer: 0.80

Question: And the “Tumour/Muscle, mean” value ([1]; 120 min post injection)?
Answer: 1.81

Question: And the “% ID/G Carotid, mean” value [2, 3]?
Answer: 0.88 % ID/G

Question: What about the “Carotid/Blood, mean” value [2, 3] of the same compound?
Answer: 0.42

Question: What about the “Carotid/Heart, mean” value [2, 3] of the same compound?
Answer: 0.49

Question: What about the “Carotid/Lung, mean” value [2, 3] of the same compound?
Answer: 0.35

Question: What about the “% ID/G Carotid, mean” value [2, 4] of the same compound?
Answer: 0.44 % ID/G

Question: And the “Carotid/Blood, mean” value [2, 4]?
Answer: 0.61

Question: What about the “Carotid/Heart, mean” value [2, 4] of the same compound?
Answer: 1.11

Question: And the “Carotid/Lung, mean” value [2, 4]?
Answer: 0.53

Question: With `NC(=O)[C@H](CCCCNC(=O)CON=Cc1ccc([18F])cc1)NC(=O)CCOCCOCCOCCOCCOCCOCCOCCOCCOCCOCCOCCNC(=O)CCOCCOCCOCCOCCOCCOCCOCCOCCOCCOCCOCCNC(=O)CCN(C1(C(=O)NO)CCCC1)S(=O)(=O)c1ccc(Oc2ccc(F)cc2)cc1` [Compound 48B] as the compound, how does the “% ID Urinary (urinary excretion), mean” value ([1]; 5 min post injection) read?
Answer: 0.24 % ID

Question: What about the “% ID/g Tumour, mean” value ([1]; 5 min post injection) of the same compound?
Answer: 2.53 % ID/g

Question: And the “Tumour/Blood, mean” value ([1]; 5 min post injection)?
Answer: 0.11

Question: What about the “Tumour/Heart, mean” value ([1]; 5 min post injection) of the same compound?
Answer: 0.40

Question: What about the “Tumour/Lung, mean” value ([1]; 5 min post injection) of the same compound?
Answer: 0.26

Question: And the “Tumour/Muscle, mean” value ([1]; 5 min post injection)?
Answer: 1.55

Question: What about the “% ID Urinary (urinary excretion), mean” value ([1]; 30 min post injection) of the same compound?
Answer: 15.29 % ID

Question: And the “% ID/g Tumour, mean” value ([1]; 30 min post injection)?
Answer: 2.33 % ID/g

Question: What about the “Tumour/Blood, mean” value ([1]; 30 min post injection) of the same compound?
Answer: 0.24

Question: What about the “Tumour/Heart, mean” value ([1]; 30 min post injection) of the same compound?
Answer: 0.84

Question: What about the “Tumour/Lung, mean” value ([1]; 30 min post injection) of the same compound?
Answer: 0.47

Question: What about the “Tumour/Muscle, mean” value ([1]; 30 min post injection) of the same compound?
Answer: 2.92

Question: What about the “% ID Urinary (urinary excretion), mean” value ([1]; 60 min post injection) of the same compound?
Answer: 56.89 % ID

Question: And the “% ID/g Tumour, mean” value ([1]; 60 min post injection)?
Answer: 1.81 % ID/g

Question: What about the “Tumour/Blood, mean” value ([1]; 60 min post injection) of the same compound?
Answer: 0.51

Question: And the “Tumour/Heart, mean” value ([1]; 60 min post injection)?
Answer: 1.69

Question: What about the “Tumour/Lung, mean” value ([1]; 60 min post injection) of the same compound?
Answer: 0.95

Question: And the “Tumour/Muscle, mean” value ([1]; 60 min post injection)?
Answer: 4.40

Question: And the “% ID Urinary (urinary excretion), mean” value ([1]; 120 min post injection)?
Answer: 59.33 % ID

Question: What about the “% ID/g Tumour, mean” value ([1]; 120 min post injection) of the same compound?
Answer: 1.62 % ID/g

Question: What about the “Tumour/Blood, mean” value ([1]; 120 min post injection) of the same compound?
Answer: 0.41

Question: What about the “Tumour/Heart, mean” value ([1]; 120 min post injection) of the same compound?
Answer: 1.52

Question: What about the “Tumour/Lung, mean” value ([1]; 120 min post injection) of the same compound?
Answer: 0.77

Question: What about the “Tumour/Muscle, mean” value ([1]; 120 min post injection) of the same compound?
Answer: 3.55

Question: What about the “% ID/G Carotid, mean” value [2, 3] of the same compound?
Answer: 12.01 % ID/G

Question: And the “Carotid/Blood, mean” value [2, 3]?
Answer: 0.40

Question: And the “Carotid/Heart, mean” value [2, 3]?
Answer: 1.27

Question: And the “Carotid/Lung, mean” value [2, 3]?
Answer: 0.75

Question: And the “% ID/G Carotid, mean” value [2, 4]?
Answer: 10.34 % ID/G

Question: What about the “Carotid/Blood, mean” value [2, 4] of the same compound?
Answer: 0.96

Question: What about the “Carotid/Heart, mean” value [2, 4] of the same compound?
Answer: 2.71

Question: What about the “Carotid/Lung, mean” value [2, 4] of the same compound?
Answer: 1.42

Question: What about the “% ID/G Carotid, mean” value [2, 5] of the same compound?
Answer: 2.37 % ID/G

Question: And the “Carotid/Blood, mean” value [2, 5]?
Answer: 0.2

Question: What about the “Carotid/Heart, mean” value [2, 5] of the same compound?
Answer: 0.81

Question: What about the “Carotid/Lung, mean” value [2, 5] of the same compound?
Answer: 0.25

Question: Which Ki (MMP-8) does the source give for `NC(=O)[C@H](CCCCNC(=O)CON=Cc1ccc(F)cc1)NC(=O)CCOCCOCCOCCOCCOCCOCCOCCOCCOCCOCCOCCNC(=O)CCOCCOCCOCCOCCOCCOCCOCCOCCOCCOCCOCCNC(=O)CCN(C1(C(=O)NO)CCCC1)S(=O)(=O)c1ccc(Oc2ccc(F)cc2)cc1` [Compound 48] here?
Answer: 0.5 nM

Question: What about the Ki (MMP-1) of the same compound?
Answer: 33.3 nM

Question: What about the Ki (MMP-9) of the same compound?
Answer: 0.2 nM
